Measurements reported in publication PMC12667739 (ACS infectious diseases, 2025).

Legend:
ComD [1] = target: T1, ComD (Streptococcus gordonii, UniProt O33646); assay: cell-based
ComD [2] = target: T1, ComD; assay: cell-based; remark: listed apart in the source

Row | Structure (SMILES) | EC50 (ComD [1]) [nM] | IC50 (ComD [2]) [nM]
1 | CC[C@H](C)[C@H](NC(=O)[C@H](CCCNC(=N)N)NC(=O)[C@H](C)NC(=O)[C@H](CCCNC(=N)N)NC(=O)[C@@H](NC(=O)[C@@H](N)CC(=O)O)[C@@H](C)CC)C(=O)N[C@@H](CC(N)=O)C(=O)N[C@@H](CC(N)=O)C(=O)N[C@@H](CO)C(=O)N[C@H](C(=O)N[C@@H](Cc1c[nH]c2ccccc12)C(=O)N[C@@H](CCCNC(=N)N)C(=O)N[C@@H](CC(=O)O)C(=O)N[C@H](C(=O)N[C@@H](Cc1ccccc1)C(=O)N[C@@H](CC(C)C)C(=O)N[C@@H](CCCCN)C(=O)N[C@@H](CCCNC(=N)N)C(=O)N[C@@H](CCCCN)C(=O)O)[C@@H](C)CC)[C@@H](C)CC [Peptide H4A] | 722 | –
2 | CC[C@H](C)[C@H](NC(=O)[C@H](CC(=O)O)NC(=O)[C@H](CCCNC(=N)N)NC(=O)[C@H](Cc1c[nH]c2ccccc12)NC(=O)[C@@H](NC(=O)[C@H](CO)NC(=O)[C@H](CC(N)=O)NC(=O)[C@H](CC(N)=O)NC(=O)[C@@H](NC(=O)[C@H](CCCNC(=N)N)NC(=O)[C@H](Cc1c[nH]cn1)NC(=O)[C@H](CCCNC(=N)N)NC(=O)[C@@H](NC(=O)[C@@H](N)CC(=O)O)[C@@H](C)CC)[C@@H](C)CC)[C@@H](C)CC)C(=O)N[C@@H](Cc1ccccc1)C(=O)N[C@@H](CC(C)C)C(=O)N[C@@H](C)C(=O)N[C@@H](CCCNC(=N)N)C(=O)N[C@@H](CCCCN)C(=O)O [Peptide K17A] | 426 | –
3 | CC[C@H](C)[C@H](NC(=O)[C@H](CC(=O)O)NC(=O)[C@H](CCCNC(=N)N)NC(=O)[C@H](Cc1c[nH]c2ccccc12)NC(=O)[C@@H](NC(=O)[C@H](CO)NC(=O)[C@H](CC(N)=O)NC(=O)[C@H](CC(N)=O)NC(=O)[C@@H](NC(=O)[C@H](CCCNC(=N)N)NC(=O)[C@H](Cc1c[nH]cn1)NC(=O)[C@H](CCCNC(=N)N)NC(=O)[C@@H](NC(=O)[C@@H](N)CC(=O)O)[C@@H](C)CC)[C@@H](C)CC)[C@@H](C)CC)C(=O)N[C@@H](Cc1ccccc1)C(=O)N[C@@H](CC(C)C)C(=O)N[C@@H](CCCCN)C(=O)N[C@@H](CCCNC(=N)N)C(=O)N[C@@H](C)C(=O)O [Peptide K19A] | 272 | –
4 | CC[C@H](C)[C@H](NC(=O)[C@H](CC(=O)O)NC(=O)[C@H](CCCNC(=N)N)NC(=O)[C@H](Cc1c[nH]c2ccccc12)NC(=O)[C@@H](NC(=O)[C@H](CO)NC(=O)[C@H](CC(N)=O)NC(=O)[C@H](CC(N)=O)NC(=O)[C@@H](NC(=O)[C@H](CCCNC(=N)N)NC(=O)[C@H](Cc1c[nH]cn1)NC(=O)[C@H](CCCNC(=N)N)NC(=O)[C@@H](NC(=O)[C@@H](N)CC(=O)O)[C@@H](C)CC)[C@@H](C)CC)[C@@H](C)CC)C(=O)N[C@@H](Cc1ccccc1)C(=O)N[C@@H](C)C(=O)N[C@@H](CCCCN)C(=O)N[C@@H](CCCNC(=N)N)C(=O)N[C@@H](CCCCN)C(=O)O [Peptide L16A] | 127 | –
5 | CC[C@H](C)[C@H](NC(=O)[C@H](CCCNC(=N)N)NC(=O)[C@H](Cc1c[nH]cn1)NC(=O)[C@H](CCCNC(=N)N)NC(=O)[C@@H](NC(=O)[C@@H](N)CC(=O)O)[C@@H](C)CC)C(=O)N[C@@H](C)C(=O)N[C@@H](CC(N)=O)C(=O)N[C@@H](CO)C(=O)N[C@H](C(=O)N[C@@H](Cc1c[nH]c2ccccc12)C(=O)N[C@@H](CCCNC(=N)N)C(=O)N[C@@H](CC(=O)O)C(=O)N[C@H](C(=O)N[C@@H](Cc1ccccc1)C(=O)N[C@@H](CC(C)C)C(=O)N[C@@H](CCCCN)C(=O)N[C@@H](CCCNC(=N)N)C(=O)N[C@@H](CCCCN)C(=O)O)[C@@H](C)CC)[C@@H](C)CC [Peptide N7A] | 203 | –
6 | CC[C@H](C)[C@H](NC(=O)[C@H](CCCNC(=N)N)NC(=O)[C@H](Cc1c[nH]cn1)NC(=O)[C@H](CCCNC(=N)N)NC(=O)[C@@H](NC(=O)[C@@H](N)CC(=O)O)[C@@H](C)CC)C(=O)N[C@@H](CC(N)=O)C(=O)N[C@@H](C)C(=O)N[C@@H](CO)C(=O)N[C@H](C(=O)N[C@@H](Cc1c[nH]c2ccccc12)C(=O)N[C@@H](CCCNC(=N)N)C(=O)N[C@@H](CC(=O)O)C(=O)N[C@H](C(=O)N[C@@H](Cc1ccccc1)C(=O)N[C@@H](CC(C)C)C(=O)N[C@@H](CCCCN)C(=O)N[C@@H](CCCNC(=N)N)C(=O)N[C@@H](CCCCN)C(=O)O)[C@@H](C)CC)[C@@H](C)CC [Peptide N8A] | 692 | –
7 | CC[C@H](C)[C@H](NC(=O)[C@H](CO)NC(=O)[C@H](CC(N)=O)NC(=O)[C@H](CC(N)=O)NC(=O)[C@@H](NC(=O)[C@H](CCCNC(=N)N)NC(=O)[C@H](Cc1c[nH]cn1)NC(=O)[C@H](CCCNC(=N)N)NC(=O)[C@@H](NC(=O)[C@@H](N)CC(=O)O)[C@@H](C)CC)[C@@H](C)CC)C(=O)N[C@@H](Cc1c[nH]c2ccccc12)C(=O)N[C@@H](C)C(=O)N[C@@H](CC(=O)O)C(=O)N[C@H](C(=O)N[C@@H](Cc1ccccc1)C(=O)N[C@@H](CC(C)C)C(=O)N[C@@H](CCCCN)C(=O)N[C@@H](CCCNC(=N)N)C(=O)N[C@@H](CCCCN)C(=O)O)[C@@H](C)CC [Peptide R12A] | 127 | –
8 | CC[C@H](C)[C@H](NC(=O)[C@H](CC(=O)O)NC(=O)[C@H](CCCNC(=N)N)NC(=O)[C@H](Cc1c[nH]c2ccccc12)NC(=O)[C@@H](NC(=O)[C@H](CO)NC(=O)[C@H](CC(N)=O)NC(=O)[C@H](CC(N)=O)NC(=O)[C@@H](NC(=O)[C@H](CCCNC(=N)N)NC(=O)[C@H](Cc1c[nH]cn1)NC(=O)[C@H](CCCNC(=N)N)NC(=O)[C@@H](NC(=O)[C@@H](N)CC(=O)O)[C@@H](C)CC)[C@@H](C)CC)[C@@H](C)CC)C(=O)N[C@@H](Cc1ccccc1)C(=O)N[C@@H](CC(C)C)C(=O)N[C@@H](CCCCN)C(=O)N[C@@H](C)C(=O)N[C@@H](CCCCN)C(=O)O [Peptide R18A] | 406 | –
9 | CC[C@H](C)[C@H](N)C(=O)N[C@@H](CCCNC(=N)N)C(=O)N[C@@H](Cc1c[nH]cn1)C(=O)N[C@@H](CCCNC(=N)N)C(=O)N[C@H](C(=O)N[C@@H](CC(N)=O)C(=O)N[C@@H](CC(N)=O)C(=O)N[C@@H](CO)C(=O)N[C@H](C(=O)N[C@@H](Cc1c[nH]c2ccccc12)C(=O)N[C@@H](CCCNC(=N)N)C(=O)N[C@@H](CC(=O)O)C(=O)N[C@H](C(=O)N[C@@H](Cc1ccccc1)C(=O)N[C@@H](CC(C)C)C(=O)N[C@@H](CCCCN)C(=O)N[C@@H](CCCNC(=N)N)C(=O)N[C@@H](CCCCN)C(=O)O)[C@@H](C)CC)[C@@H](C)CC)[C@@H](C)CC [desD1] | – | 985
10 | CC[C@H](C)[C@H](NC(=O)[C@H](CC(=O)O)NC(=O)[C@H](CCCNC(=N)N)NC(=O)[C@H](Cc1c[nH]c2ccccc12)NC(=O)[C@@H](NC(=O)[C@H](CO)NC(=O)[C@H](CC(N)=O)NC(=O)[C@H](CC(N)=O)NC(=O)[C@@H](NC(=O)[C@H](CCCNC(=N)N)NC(=O)[C@H](Cc1c[nH]cn1)NC(=O)[C@H](CCCNC(=N)N)NC(=O)[C@@H](NC(=O)[C@@H](N)CC(=O)O)[C@@H](C)CC)[C@@H](C)CC)[C@@H](C)CC)C(=O)N[C@@H](Cc1ccccc1)C(=O)N[C@@H](CC(C)C)C(=O)N[C@@H](CCCCN)C(=O)N[C@@H](CCCNC(=N)N)C(=O)O [desK19] | 309 | –
